According to the supplement of paper PMC11061612:

Key:
[1] = tested on: C32 (Melanoma); test: Bliss excess, mean over the matrix (fraction); higher = more synergy
Summary of the method: (§1)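 Cell lines in DMEM/F12 or RPMI with 10% FBS were plated in 1536-well plates, held 24 hours at 37°C, 5% CO2, then given two-drug dose matrices for 72 hours (DMSO typically 0.2%). Viability was read by CellTiter-Glo 2.0 luminescence and scaled as inhibition from 0 (vehicle wells) to 1 (blank wells). Combination Emax is the second-highest inhibition in the matrix; Bliss excess is observed combination effect minus expected EA + EB − EA·EB, EA and EB being single-agent effects.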

[2] = tested on: Daudi (Burkitt's Lymphoma); test: as above
Summary of the method: as §1

[3] = tested on: NCI-H1435 (Non-Small Cell Lung Carcinoma); test: as above
Summary of the method: as §1

[4] = tested on: NCI-H1648 (Lung Adenocarcinoma); test: as above
Summary of the method: as §1

[5] = tested on: NCI-H1944 (Lung Adenocarcinoma); test: as above
Summary of the method: as §1

[6] = tested on: NCI-H2023 (Non-Small Cell Lung Carcinoma); test: as above
Summary of the method: as §1

[7] = tested on: OVKATE (Ovarian Carcinoma); test: as above
Summary of the method: as §1

[8] = tested on: RPMI-8402 (T-Lymphoblastic Leukemia); test: as above
Summary of the method: as §1

[9] = tested on: RS4-11 (B-Lymphoblastic Leukemia); test: as above
Summary of the method: as §1

[10] = tested on: SBC-3 (Small Cell Lung Carcinoma); test: as above
Summary of the method: as §1

[11] = tested on: SK-MEL-24 (Melanoma); test: as above
Summary of the method: as §1

[12] = tested on: SK-N-DZ (Neuroblastoma); test: as above
Summary of the method: as §1

[13] = tested on: C2BBe1 (Colorectal Carcinoma); test: combination Emax (second highest fraction inhibited in the dose matrix, 72 h); higher = more inhibition; extreme values may be limits of the assay
Summary of the method: as §1

[14] = tested on: HT-144 (Melanoma); test: as above
Summary of the method: as §1

[15] = tested on: JJN-3 (Plasma Cell Myeloma); test: as above
Summary of the method: as §1

[16] = tested on: JURL-MK1 (Chronic Myelogenous Leukemia); test: as above
Summary of the method: as §1

[17] = tested on: NTERA-2-cl-D1 (Other Solid Carcinomas); test: as above
Summary of the method: as §1

[18] = tested on: OVKATE (Ovarian Carcinoma); test: as above
Summary of the method: as §1

[19] = tested on: SK-MEL-24 (Melanoma); test: as above
Summary of the method: as §1

[20] = tested on: SW1463 (Colorectal Carcinoma); test: as above
Summary of the method: as §1
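Wherever Bliss excess, mean over the matrix is given: after 72 h of two-drug dosing.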

| SMILES | Bliss excess [1] | Bliss excess [2] | Bliss excess [3] | Bliss excess [4] | Bliss excess [5] | Bliss excess [6] | Bliss excess [7] | Bliss excess [8] | Bliss excess [9] | Bliss excess [10] | Bliss excess [11] | Bliss excess [12] | combination Emax [13] | combination Emax [14] | combination Emax [15] | combination Emax [16] | combination Emax [17] | combination Emax [18] | combination Emax [19] | combination Emax [20] |
| --- | --- | --- | --- | --- | --- | --- | --- | --- | --- | --- | --- | --- | --- | --- | --- | --- | --- | --- | --- | --- |
| CC(=O)c1c(C)c2cnc(Nc3ccc(N4CCNCC4)cn3)nc2n(C2CCCC2)c1=O [Palbociclib] + CC1(C)CCC(CN2CCN(c3ccc(C(=O)NS(=O)(=O)c4ccc(NCC5CCOCC5)c([N+](=O)[O-])c4)c(Oc4cnc5[nH]ccc5c4)c3)CC2)=C(c2ccc(Cl)cc2)C1 [Venetoclax] (first compound max 10 µM, 7x7, partner max 1 µM) | -0.0322 | 0.0137 | -0.0191 | -0.0254 | 0.0257 | -0.0067 | -0.0484 | -0.0777 | 0.0385 | -0.038 | -0.0586 | 0.0824 | 0.111 | 0.555 | 0.261 | 0.661 | 0.134 | 0.12 | 0.182 | 0.603 |
| CC(=O)c1c(C)c2cnc(Nc3ccc(N4CCNCC4)cn3)nc2n(C2CCCC2)c1=O [Palbociclib] + Cc1c2c(nn1C)CSCc1cc(n(C)n1)CSc1cc(c3ccccc3c1)OCCCc1c(C(=O)O)n(C)c3c-2c(Cl)ccc13 [AZD5991] (first compound max 10 µM, 7x7, partner max 1 µM) | -0.0069 | 0.0059 | -0.0308 | -0.0084 | 0.0187 | -0.0335 | -0.0382 | 0.0046 | -0.0519 | -0.043 | -0.0196 | 0.0655 | 0.229 | 0.972 | 0.992 | 1 | 0.509 | 0.208 | 0.283 | 0.58 |
| CC(=O)c1c(C)c2cnc(Nc3ccc(N4CCNCC4)cn3)nc2n(C2CCCC2)c1=O [Palbociclib] + Cn1cnc2c(F)c(Nc3ccc(Br)cc3Cl)c(C(=O)NOCCO)cc21 [Selumetinib] (first compound max 10 µM, 7x7, partner max 10 µM) | -0.0086 | -0.0641 | -0.0105 | 0.0823 | -0.0022 | -0.0313 | -0.0378 | -0.0374 | -0.0881 | -0.0396 | -0.031 | -0.0848 | 0.379 | 0.896 | 0.168 | 1 | 0.249 | 0.219 | 0.654 | 0.646 |
| COc1cccc(OCCCN)c1-c1cc(Nc2cnc(C#N)cn2)n[nH]1 [Prexasertib] + C=CCn1c(=O)c2cnc(Nc3ccc(N4CCN(C)CC4)cc3)nc2n1-c1cccc(C(C)(C)O)n1 [AZD1775] (first compound max 1 µM, partner max 1 µM) | -0.0206 | 0.0677 | 0.0718 | 0.0286 | 0.077 | 0.0205 | -0.0665 | 0.0389 | 0.0466 | 0.146 | 0.112 | 0.0202 | 0.613 | 0.838 | 0.985 | 1 | 0.916 | 0.371 | 0.703 | 0.795 |
| COc1cccc(OCCCN)c1-c1cc(Nc2cnc(C#N)cn2)n[nH]1 [Prexasertib] + CCc1c2c(nc3ccc(O)cc13)-c1cc3c(c(=O)n1C2)COC(=O)[C@]3(O)CC [SN-38] (first compound max 1 µM, 7x7, partner max 0.3 µM) | -0.126 | -0.0078 | 0.0171 | 0.0114 | -0.006 | -0.0527 | -0.0292 | -0.0152 | 0.0066 | -0.0766 | -0.0557 | 0.0205 | 0.708 | 0.912 | 0.981 | 1 | 0.981 | 0.258 | 0.837 | 0.741 |
| COc1cccc(OCCCN)c1-c1cc(Nc2cnc(C#N)cn2)n[nH]1 [Prexasertib] + CN(C)CCCOc1ccc(-c2ccc3ncc4c(c3c2)n(C2CCOCC2)c(=O)n4C)cn1 [AZD0156] (first compound max 1 µM, 7x7, partner max 1 µM) | 0.009 | -0.0041 | 0.0385 | -0.0136 | 0.0331 | -0.0373 | -0.069 | -0.0172 | -0.0548 | -0.0046 | 0.0017 | 0.0108 | 0.582 | 0.744 | 0.976 | 1 | 0.227 | 0.275 | 0.624 | 0.716 |
| COc1cccc(OCCCN)c1-c1cc(Nc2cnc(C#N)cn2)n[nH]1 [Prexasertib] + C[C@@H]1COCCN1C2=NC(=NC(=C2)C3(CC3)[S@](=N)(=O)C)C4=C5C=CNC5=NC=C4 [AZD6738] (first compound max 1 µM, 7x7, partner max 10 µM) | -0.0529 | -0.0295 | 0.0676 | -0.0445 | 0.0168 | 0.0108 | -0.0378 | 0.001 | -0.0225 | -0.0201 | -0.0061 | 0.008 | 0.556 | 0.853 | 0.971 | 1 | 0.596 | 0.337 | 0.646 | 0.704 |
